The values below come from ChEMBL document CHEMBL1681780, “A rational approach for the design and synthesis of 1-acetyl-3,5-diaryl-4,5-dihydro(1H)pyrazoles as a new class of potential non-purine xanthine oxidase inhibitors” (Bioorg Med Chem, 2011).

One may read the IC50 as the midpoint of a concentration-inhibition curve.

The target in this experiment is Xanthine dehydrogenase/oxidase (Bos taurus, UniProt P80457). The experiment is described as follows: Inhibition of bovine Xanthine oxidase assessed as decrease in uric acid production preincubated […] for 5 mins by spectrophotometry.

A value given as a limit tells only on which side of the number the result lay.

Chain of Xanthine dehydrogenase/oxidase (P80457 whole entry): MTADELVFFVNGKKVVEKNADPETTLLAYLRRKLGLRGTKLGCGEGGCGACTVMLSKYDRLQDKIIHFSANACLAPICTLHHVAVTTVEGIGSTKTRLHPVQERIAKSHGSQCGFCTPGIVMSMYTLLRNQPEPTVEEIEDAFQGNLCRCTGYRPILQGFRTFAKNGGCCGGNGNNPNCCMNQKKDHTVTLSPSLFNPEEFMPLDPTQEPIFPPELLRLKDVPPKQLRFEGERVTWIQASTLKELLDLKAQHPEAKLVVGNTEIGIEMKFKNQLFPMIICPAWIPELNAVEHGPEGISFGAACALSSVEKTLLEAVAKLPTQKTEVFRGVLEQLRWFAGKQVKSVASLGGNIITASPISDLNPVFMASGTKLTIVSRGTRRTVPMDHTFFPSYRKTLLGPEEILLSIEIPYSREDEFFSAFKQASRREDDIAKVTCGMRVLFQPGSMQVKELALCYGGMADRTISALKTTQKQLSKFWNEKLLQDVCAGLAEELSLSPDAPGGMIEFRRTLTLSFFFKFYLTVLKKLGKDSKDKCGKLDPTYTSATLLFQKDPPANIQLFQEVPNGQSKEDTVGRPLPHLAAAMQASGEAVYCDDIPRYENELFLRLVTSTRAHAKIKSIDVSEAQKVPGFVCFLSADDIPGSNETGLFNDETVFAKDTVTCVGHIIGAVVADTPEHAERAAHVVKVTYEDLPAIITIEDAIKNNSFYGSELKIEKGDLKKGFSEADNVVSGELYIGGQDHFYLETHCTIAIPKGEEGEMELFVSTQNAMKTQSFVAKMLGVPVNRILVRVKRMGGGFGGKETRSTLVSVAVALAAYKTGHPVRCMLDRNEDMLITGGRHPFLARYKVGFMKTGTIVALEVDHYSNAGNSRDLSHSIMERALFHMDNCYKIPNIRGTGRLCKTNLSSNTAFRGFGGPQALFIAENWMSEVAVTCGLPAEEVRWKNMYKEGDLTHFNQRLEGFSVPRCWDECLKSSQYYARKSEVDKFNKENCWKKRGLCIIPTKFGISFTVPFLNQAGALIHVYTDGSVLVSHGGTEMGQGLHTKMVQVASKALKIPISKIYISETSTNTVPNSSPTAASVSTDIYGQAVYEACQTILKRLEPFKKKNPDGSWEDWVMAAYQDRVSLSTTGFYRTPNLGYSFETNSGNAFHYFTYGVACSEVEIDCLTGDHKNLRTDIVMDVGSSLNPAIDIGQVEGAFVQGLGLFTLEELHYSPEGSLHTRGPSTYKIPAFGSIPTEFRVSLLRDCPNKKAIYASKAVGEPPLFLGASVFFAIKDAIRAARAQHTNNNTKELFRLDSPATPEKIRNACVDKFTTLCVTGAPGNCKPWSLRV

As to `CC(=O)N1N=C(c2ccco2)CC1c1ccccc1` (stereo not drawn), the IC50 stood at 26.4 µM.
For `CC(=O)N1N=C(c2cccc([N+](=O)[O-])c2)CC1c1cccc(Cl)c1Cl` (stereo not drawn) the value was 58 µM; for `CC(=O)N1N=C(c2ccccc2)CC1c1ccccc1` (stereo not drawn), 61.4 µM.
For the compound `COc1ccc(C2CC(c3ccco3)=NN2C(C)=O)cc1` (stereo not drawn), the IC50 was 21.3 µM.
For `COc1cc(C2CC(c3cccc4ccccc34)=NN2C(C)=O)ccc1O` (stereo not drawn) the value was 45.7 µM; for `COc1cc(OC)c(C2CC(c3cccc4ccccc34)=NN2C(C)=O)cc1OC` (stereo not drawn), 46.2 µM; for `COc1ccc(C2CC(c3ccc(Br)cc3)=NN2C(C)=O)cc1` (stereo not drawn), 66.5 µM.
For `CC(=O)N1N=C(c2ccccc2)CC1c1ccc(N(C)C)cc1` (stereo not drawn) the value was 73.6 µM; for `CC(=O)N1N=C(c2ccco2)CC1c1cccc([N+](=O)[O-])c1` (stereo not drawn), 13.1 µM; for `CC(=O)N1N=C(c2cccc3ccccc23)CC1c1ccccc1` (stereo not drawn), 41.3 µM.
With `CC(=O)N1N=C(c2ccco2)CC1c1ccc([N+](=O)[O-])cc1` (stereo not drawn), the IC50 is 12.4 µM.
For `CC(=O)N1N=C(c2cccc3ccccc23)CC1c1cccc(Br)c1` (stereo not drawn) the value was 38.7 µM.
As for `CC(=O)N1N=C(c2ccc(Br)cc2)CC1c1ccccc1` (stereo not drawn), the IC50 stood at 71.3 µM.
For `CC(=O)N1N=C(c2ccc(Br)cc2)CC1c1cccc(Cl)c1Cl` (stereo not drawn) the value was 51.7 µM; for `COc1ccc(C2CC(c3cccc([N+](=O)[O-])c3)=NN2C(C)=O)cc1OC` (stereo not drawn), 75.2 µM; for `CC(=O)N1N=C(c2ccco2)CC1c1ccc(Br)cc1` (stereo not drawn), 17.6 µM.
Regarding `c1ccc(C2=NNC(c3ccccc3)C2)cc1` (stereo not drawn), the IC50 is over 100 µM.
For `CC(=O)N1N=C(c2ccco2)CC1c1ccc(N(C)C)cc1` (stereo not drawn) the value was 23 µM; for `COc1cc(C2CC(c3ccco3)=NN2C(C)=O)cc(OC)c1OC` (stereo not drawn), 28.7 µM.
The same measure for `CC(=O)N1N=C(c2cccc3ccccc23)CC1c1ccc2c(c1)OCO2` (stereo not drawn): 47 µM; for `CC(=O)N1N=C(c2cccc3ccccc23)CC1c1cccc([N+](=O)[O-])c1` (stereo not drawn): 36.4 µM; for `CC(=O)N1N=C(c2cccc([N+](=O)[O-])c2)CC1c1ccc2c(c1)OCO2` (stereo not drawn): 76.1 µM.
For `COc1ccc(C2CC(c3cccc4ccccc34)=NN2C(C)=O)cc1` (stereo not drawn), the concentration for half-maximal inhibition (IC50) stood at 43.5 µM.
As for `CC(=O)N1N=C(c2ccco2)CC1c1ccc2c(c1)OCO2` (stereo not drawn), the IC50 was determined as 28.1 µM.
Take `COc1cc(OC)c(C2CC(c3ccco3)=NN2C(C)=O)cc1OC` (stereo not drawn): the IC50 worked out at 30.2 µM.
`COc1cc(C2CC(c3ccco3)=NN2C(C)=O)ccc1O` (stereo not drawn): the IC50 amounted to 26.8 µM.
For `COc1ccc(C2CC(c3ccccc3)=NN2C(C)=O)cc1` (stereo not drawn) the value was 76.2 µM; for `COc1ccc(C2CC(c3cccc([N+](=O)[O-])c3)=NN2C(C)=O)cc1` (stereo not drawn), 73.3 µM.
The same measure for `CC(=O)N1N=C(c2cccc3ccccc23)CC1c1ccc2ccccc2c1` (stereo not drawn): over 100 µM.
`CC(=O)N1N=C(c2cccc3ccccc23)CC1c1cccc(Cl)c1Cl` (stereo not drawn): the IC50 worked out at 34.2 µM.
For `CC(=O)N1N=C(c2ccco2)CC1c1ccncc1` (stereo not drawn) the value was 5.3 µM.
As for `COc1cc(C2CC(c3ccccc3)=NN2C(C)=O)cc(OC)c1OC` (stereo not drawn), the IC50 is 86.4 µM.
For `COc1ccc(OC)c(C2CC(c3cccc4ccccc34)=NN2C(C)=O)c1` (stereo not drawn) the value was 44.8 µM.
The same measure for `CC(=O)N1N=C(c2ccco2)CC1c1cccc(O)c1` (stereo not drawn): 27.2 µM; for `CC(=O)N1N=C(c2ccco2)CC1c1cccc(Cl)c1Cl` (stereo not drawn): 14.8 µM; for `CC(=O)N1N=C(c2ccco2)CC1c1ccc(C)cc1` (stereo not drawn): 19.2 µM.
For `COc1cc(C2CC(c3ccc(Br)cc3)=NN2C(C)=O)cc(OC)c1OC` (stereo not drawn), the IC50 amounted to 74.9 µM.
As for `CC(=O)N1N=C(c2ccco2)CC1c1ccc(Cl)cc1` (stereo not drawn), the IC50 amounted to 15.2 µM.
The same measure for `COc1ccc(C2CC(c3ccccc3)=NN2C(C)=O)cc1OC` (stereo not drawn): 83.7 µM; for `CC(=O)N1N=C(c2ccco2)CC1c1ccc2ccccc2c1` (stereo not drawn): 91.4 µM; for `CC(=O)N1N=C(c2cccc3ccccc23)CC1c1ccccc1[N+](=O)[O-]` (stereo not drawn): 37.2 µM.
For `COc1ccc(C2CC(c3ccc(Br)cc3)=NN2C(C)=O)cc1OC` (stereo not drawn) the value was 64.1 µM.
For `COc1cc(C2CC(c3ccccc3)=NN2C(C)=O)ccc1O` (stereo not drawn) the value was 81.2 µM.
Regarding `CC(=O)N1N=C(c2ccco2)CC1c1ccccc1[N+](=O)[O-]` (stereo not drawn), the IC50 worked out at 14.2 µM.
For `COc1ccc(C2CC(c3ccco3)=NN2C(C)=O)cc1OC` (stereo not drawn) the value was 29.4 µM; for `CC(=O)N1N=C(c2ccc(Br)cc2)CC1c1ccc2c(c1)OCO2` (stereo not drawn), 66.3 µM.
For `CC(=O)N1N=C(c2cccc([N+](=O)[O-])c2)CC1c1ccccc1` (stereo not drawn) the value was 79.1 µM.
For `CC(=O)N1N=C(c2ccccc2)CC1c1cccc(Cl)c1Cl` (stereo not drawn) the value was 55.1 µM.
Consider `COc1ccc(C2CC(c3cccc4ccccc34)=NN2C(C)=O)cc1OC` (stereo not drawn), for which the IC50 came to 45.6 µM.
The same measure for `COc1cc(C2CC(c3cccc4ccccc34)=NN2C(C)=O)cc(OC)c1OC` (stereo not drawn): 49.5 µM; for `CC(=O)N1N=C(c2cccc3ccccc23)CC1c1ccc([N+](=O)[O-])cc1` (stereo not drawn): 32.2 µM.
The same measure for `CC(=O)N1N=C(c2ccccc2)CC1c1ccc2c(c1)OCO2` (stereo not drawn): 70.8 µM; for `COc1ccc(OC)c(C2CC(c3ccco3)=NN2C(C)=O)c1` (stereo not drawn): 27.3 µM.
